According to patent US5618812A, “Benzodiazepine derivatives” (Merck Sharp & Dohme, Ltd., priority 1992, dated 1997):
Structures can show the parent of a compound that is named as a salt. Where two headings read alike, the source gives them in different places.

Columns and labels:
[1] = molecular target: T1, CCK-B (Cavia porcellus, UniProt H0VZC5); assay: displacement of specific 125I-CCK from guinea pig brain (CCK-B receptor binding)
T1 construct: guinea pig brain (CCK-B); from tissue; host or cells: guinea pig brain
T1 sequence (H0VZC5 1-426): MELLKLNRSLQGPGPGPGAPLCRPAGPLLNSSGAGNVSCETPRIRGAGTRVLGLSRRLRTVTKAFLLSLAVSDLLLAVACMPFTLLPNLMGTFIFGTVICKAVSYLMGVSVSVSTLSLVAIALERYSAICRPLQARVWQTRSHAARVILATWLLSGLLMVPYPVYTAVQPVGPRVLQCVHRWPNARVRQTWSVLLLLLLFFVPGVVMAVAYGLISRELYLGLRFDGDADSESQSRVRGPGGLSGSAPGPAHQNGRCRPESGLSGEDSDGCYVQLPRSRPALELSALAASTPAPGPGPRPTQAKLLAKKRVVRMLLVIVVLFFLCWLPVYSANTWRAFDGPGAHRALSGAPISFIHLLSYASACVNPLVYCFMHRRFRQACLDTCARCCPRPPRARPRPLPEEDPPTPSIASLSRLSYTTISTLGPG
Protocol: (§1) The CCK-A and CCK-B antagonising activity of the compounds described herein was evaluated using the assays described in published European patent application no. 0514133. The method essentially involves determining the concentration of the test compound required to displace 50% of the specific ^125 I-CCK from rat pancreas (CCK-A) or guinea pig brain (CCK-B). The data in Table 1 were obtained for compounds of the Examples.

[2] = molecular target: T2, CCK-A (Rattus norvegicus, UniProt P30551); assay: biochemical; assay type: binding; conditions: rat pancreas (CCK-A), 125I-CCK
T2 sequence (P30551 1-444): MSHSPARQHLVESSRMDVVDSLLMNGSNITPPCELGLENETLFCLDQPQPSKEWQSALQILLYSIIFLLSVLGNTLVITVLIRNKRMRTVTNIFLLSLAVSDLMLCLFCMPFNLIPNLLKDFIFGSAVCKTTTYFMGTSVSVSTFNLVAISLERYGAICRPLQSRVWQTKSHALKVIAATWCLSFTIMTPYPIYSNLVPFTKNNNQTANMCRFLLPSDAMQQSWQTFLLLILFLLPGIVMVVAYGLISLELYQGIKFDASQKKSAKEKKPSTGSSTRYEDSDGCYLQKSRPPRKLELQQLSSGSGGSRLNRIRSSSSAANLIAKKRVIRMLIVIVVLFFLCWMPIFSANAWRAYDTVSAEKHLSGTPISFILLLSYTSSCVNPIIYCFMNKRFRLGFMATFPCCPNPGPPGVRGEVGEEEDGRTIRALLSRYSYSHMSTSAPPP
Protocol: as §1, with “(CCK-B).” for “(CCK-B). The data in Table 1 were obtained for compounds of the Examples.”

[3] = read-out: CCK RECEPTOR BINDING RESULTS IC50 125I-CCK Brain
[4] = read-out: CCK RECEPTOR BINDING RESULTS IC50 125I-CCK Pancreas
[5] = CCK RECEPTOR BINDING RESULTS IC50 125I-CCK Brain

Row | Compound | IC50 [1, 3] | IC50 [2, 4] | IC50 [1, 5] | IC50 ([2]; CCK RECEPTOR BINDING RESULTS IC50 125I-CCK Pancreas)
1 | CCCN1C(=O)C(NC(=O)Nc2cccc(C)c2)N=C(N2CCC3(CC2)OCCO3)c2ccccc21 (racemic) [Example 1, N-[3(R,S)-2,3-Dihydro-5-(1,4-dioxa-8-azaspiro[4,5]decan-8-yl)-2-oxo-1-propyl-1H-1,4-benzodiazepin-3-yl]N'-[3-methylphenyl]urea] | 14.8 nM | 724 nM |  | 
2 | CCCN1C(=O)C(NC(=O)Nc2cccc(C)c2)N=C(N2CCC(=O)CC2)c2ccccc21 (racemic) [Example 2, N-[3(R,S)-2,3-Dihydro-2-oxo-5-(4-oxopiperidin-1-yl)-1-propyl-1H-1,4-benzodiazepin-3-yl]N'-[3-methylphenyl] urea] | 2.02 nM | 871 nM |  | 
3 | CCCN1C(=O)C(NC(=O)Nc2cccc(C)c2)N=C(N2CCC(NCC(F)(F)F)CC2)c2ccccc21 (racemic) [Example 3, N-[3(R,S)-2,3-Dihydro-2-oxo-1-propyl-5-(4-[1,1,1-trifluoroethylamine]piperidin-1-yl)-1H-1,4-benzodiazepin-3-yl]N'-[3-methylphenyl]urea] | 11.6 nM | 544 nM |  | 
4 | CN1C(=O)C(NC(=O)Nc2ccc3c(c2)CCC3)N=C(N2CCC(C)(C)CC2)c2ccccc21 (racemic) [Example 4, N-[3(R,S)-2,3-Dihydro-5-(4,4-dimethylpiperidin-1-yl)-1-methyl-2-oxo-1H-1,4-benzodiazepin-3-yl]N'-[indan-5-yl]urea] | 1.19 nM | 35 nM |  | 
5 | Cc1cccc(NC(=O)NC2N=C(N3CCC(C)CC3)c3ccccc3N(C)C2=O)c1 (racemic) [Example 7, N-[3(R,S)-2,3-Dihydro-1-methyl-5-(4-methylpiperidin-1-yl)-2-oxo-1H-1,4-benzodiazepin-3-yl]N'-[3-methylphenyl]urea] | 1.64 nM | 7.74 nM |  | 
6 | Cc1cccc(NC(=O)NC2N=C(N3CCC(C)(C)CC3)c3ccccc3N(C)C2=O)c1 (racemic) [Example 9, N-[3(R,S)-2,3-Dihydro-5-(4,4-dimethylpiperidin-1-yl)-1-methyl-2-oxo-1H-1,4-benzodiazepin-3-yl]N'-[3-methylphenyl]urea] | 0.21 nM | 8.97 nM |  | 
7 | COC1CCN(C2=NC(NC(=O)Nc3cccc(C)c3)C(=O)N(C)c3ccccc32)CC1 (racemic) [Example 11, N-[3(R,S)-2,3-Dihydro-5-(4-methoxypiperidin-1-yl)-1-methyl-2-oxo-1H-1,4-benzodiazepin-3-yl]N'-[3-methylphenyl]urea] | 4.22 nM | 25.2 nM |  | 
8 | CCCN1C(=O)C(NC(=O)Nc2cccc(C)c2)N=C(N2CCC(C)CC2)c2ccccc21 (racemic) [Example 17, N-[3(R,S)-2,3-Dihydro-5-(4-methylpiperidin-1-yl)-2-oxo-1-propyl-1H-1,4-benzodiazepin-3-yl]N'-[3-methylphenyl]urea] | 0.2 nM | 27.2 nM |  | 
9 | Cc1cccc(NC(=O)NC2N=C(N3CCC(C)(C)CC3)c3ccccc3N(CC(F)(F)F)C2=O)c1 (racemic) [Example 27, N-[3(R,S)-2,3-Dihydro-5-(4,4,dimethylpiperidin-1-yl)-2-oxo-1-(2,2,2-trifluoroethyl)-1H-1,4-benzodiazepin-3-yl]N'-(3-methylphenyl) urea] | 33 nM | 15 nM |  | 
10 | Cc1cccc(NC(=O)NC2N=C(N3CC4CCC(CC4)C3)c3ccccc3N(C)C2=O)c1 (racemic) [Example 31, N-[3(R,S)-5-(3-Azabicyclo[3,2,2]nonan-3-yl)-2,3-dihydro-1-methyl-2-oxo-1H-1,4-benzodiazepin-3-yl]-N'-[3-methylphenyl]urea] |  |  | 0.53 nM | 20 nM
11 | CN1C(=O)C(NC(=O)Nc2cccc(F)c2)N=C(N2CC3CCC(CC3)C2)c2ccccc21 (racemic) [Example 35, N-[3(R,S)-5-(3-Azabicyclo[3,2,2]nonan-3-yl)-2,3-dihydro-1-methyl-2-oxo-1H-1,4-benzodiazepin-3-yl]-N'-[3-fluorophenyl]urea] |  | 39.6 nM | 0.82 nM | 
12 | Cc1cccc(NC(=O)NC2N=C(N3CC4CCC(C4)C3)c3ccccc3N(C)C2=O)c1 (racemic) [Example 38, N-[3(R,S)-5-(3-Azabicyclo[3,2,1]octan-3-yl)-2,3-dihydro-1-methyl-2-oxo-1H-1,4-benzodiazepin-3-yl]-N'-[3-methylphenyl]urea] | 0.71 nM | 7.93 nM |  | 
13 | CN1C(=O)C(NC(=O)Nc2cccc(C(F)(F)F)c2)N=C(N2CC3CCC(CC3)C2)c2ccccc21 (racemic) [Example 42, N-[3(R,S)-5-(3-Azabicyclo[3,2,2]nonan-3-yl)-2,3-dihydro-1-methyl-2-oxo-1H-1,4-benzodiazepin-3-yl]-N'-[3-trifluoromethyl-phenyl]urea] |  | 80.4 nM | 1.79 nM | 
14 | CCCN1C(=O)C(NC(=O)Nc2cccc(C)c2)N=C(N2CC3CCC(C2)N3C)c2ccccc21 (racemic) [Example 43, N-[3(R,S)-2,3-Dihydro-5-(8-methyl-3,8-diazabicyclo[3,2,1]octan-3-yl)-2-oxo-1-propyl-1H-1,4-benzodiazepin-3-yl]-N'-[3-methylphenyl]urea] |  | > 3000 nM | 48.3 nM | 
15 | Cc1ccc(NC(=O)NC2N=C(N3CC4CCC(CC4)C3)c3ccccc3N(C)C2=O)cc1F (racemic) [Example 44, N-(3(R,S)-5-(3-Azabicyclo[3,2,2]nonan-3-yl)-2,3-dihydro-1-methyl-2-oxo 1H-1,4-benzodiazepin-3-yl]-N'-[3-fluoro-4-methylphenyl]urea] |  | 70.2 nM | 0.52 nM | 
16 | CN1C(=O)C(NC(=O)Nc2cccc(I)c2)N=C(N2CC3CCC(CC3)C2)c2ccccc21 (racemic) [Example 47, N-[3(R,S)-5-(3-Azabicyclo[3,2,2]nonan-3-yl)-2,3-dihydro-1-methyl-2-oxo-1H-1,4-benzodiazepin-3-yl]-N'-[3-iodophenyl]urea] |  | 26.6 nM | 1.01 nM | 
17 | CN1C(=O)C(NC(=O)Nc2ccccc2)N=C(N2CC3CCC(CC3)C2)c2ccccc21 (racemic) [Example 50, N-[3(R,S)-5-(3-Azabicyclo[3,2,2]nonan-3-yl)-2,3-dihydro-1-methyl-2-oxo-1H-1,4-benzodiazepin-3-yl]-N'-[phenyl]urea] |  | 10 nM | 3.9 nM | 
18 | Cc1cccc(NC(=O)NC2N=C(N3CC4CCC3CC4)c3ccccc3N(C)C2=O)c1 (racemic) [Example 51, N-[3(R,S)-5-(2-Azabicyclo[2,2,2]octan-2-yl)-2,3-dihydro-1-methyl-2-oxo-1H-1,4-benzodiazepin-3-yl]-N'-[3-methylphenyl]urea] | 5.49 nM | 28.5 nM |  | 
19 | Cc1cc(NC(=O)NC2N=C(N3CC4CCC(CC4)C3)c3ccccc3N(C)C2=O)ccc1F (racemic) [Example 52, N-[3(R,S)-5-(3-Azabicyclo[3,2,2]nonan-3-yl)-2,3-dihydro-1-methyl-2-oxo-1H-1,4-benzodiazepin-3-yl)-N'-[4-fluoro-3-methylphenyl]urea] |  | 18.5 nM | 0.25 nM | 
20 | Cc1cccc(NC(=O)NC2N=C(N3CC4CCC(CC4)C3)c3ccccc3N(C)C2=O)c1 (single isomer, unassigned; (-)) [Example 33, (-)-N-[5-(3-Azabicyclo[3,2,2]nonan-3-yl)-2,3-dihydro-1-methyl-2-oxo-1H-1,4-benzodiazepin-3-yl]-N'-[3-methylphenyl]urea Hydrochloride] |  |  | 0.1 nM | 
